Results as given in patent US7790721B2, “Pyrroloquinoxalinone inhibitors of poly(ADP-ribose)polymerase” (Abbott Laboratories, priority 2006, dated 2010).

biological target: T1, PARP-1 (Homo sapiens, UniProt P09874); test: PARP1 assay (inhibition of PARP, [3H]-NAD+ / biotinylated histone H1, FlashPlate scintillation); assay type: biochemical; conditions: recombinant human PARP, 1 nM enzyme, 1.5 μM [3H]-NAD+; inhibition curves at various substrate concentrations; read-out: PARP-1 (Ki)
T1 construct: purchased Trevigen (Gaithersburg, Md.); host or cells: E. coli
T1 sequence (P09874 whole entry): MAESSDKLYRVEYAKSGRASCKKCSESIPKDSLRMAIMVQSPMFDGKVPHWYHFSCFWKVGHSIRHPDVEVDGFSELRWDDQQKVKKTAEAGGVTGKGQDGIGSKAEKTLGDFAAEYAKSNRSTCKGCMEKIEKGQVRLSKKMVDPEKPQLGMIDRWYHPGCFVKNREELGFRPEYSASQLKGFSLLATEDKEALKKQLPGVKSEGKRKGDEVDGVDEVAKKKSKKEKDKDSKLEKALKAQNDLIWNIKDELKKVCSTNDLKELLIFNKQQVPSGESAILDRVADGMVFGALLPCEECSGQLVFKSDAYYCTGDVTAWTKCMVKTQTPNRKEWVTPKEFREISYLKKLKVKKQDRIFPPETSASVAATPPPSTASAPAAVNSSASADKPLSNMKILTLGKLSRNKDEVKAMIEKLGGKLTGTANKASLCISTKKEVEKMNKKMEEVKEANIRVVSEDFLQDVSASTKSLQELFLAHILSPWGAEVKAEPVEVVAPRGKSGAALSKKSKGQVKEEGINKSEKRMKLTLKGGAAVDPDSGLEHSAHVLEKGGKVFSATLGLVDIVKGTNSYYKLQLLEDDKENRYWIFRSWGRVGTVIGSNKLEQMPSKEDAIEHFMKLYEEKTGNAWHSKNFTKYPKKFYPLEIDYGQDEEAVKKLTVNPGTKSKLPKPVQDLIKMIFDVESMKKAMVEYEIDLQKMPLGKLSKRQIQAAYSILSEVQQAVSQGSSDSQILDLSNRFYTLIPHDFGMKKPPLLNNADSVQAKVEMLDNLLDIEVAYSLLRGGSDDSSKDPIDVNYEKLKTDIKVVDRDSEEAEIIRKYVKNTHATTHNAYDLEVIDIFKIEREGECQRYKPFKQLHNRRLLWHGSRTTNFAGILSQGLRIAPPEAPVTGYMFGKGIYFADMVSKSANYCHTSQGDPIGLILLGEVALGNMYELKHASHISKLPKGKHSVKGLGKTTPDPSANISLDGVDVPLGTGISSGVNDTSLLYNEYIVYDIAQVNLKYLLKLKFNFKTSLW
Method: Nicotinamide[2,5′,8-3H]adenine dinucleotide and strepavidin SPA beads were purchased from Amersham Biosiences (Buckinghamshire, U.K.). […] NAD^+, histone, aminobenzamide, 3-amino benzamide and Calf Thymus DNA (dcDNA) were purchased from Sigma (St. Louis, Mo.). […] Biotinylated histone H1 was prepared by treating the protein with Sulfo-NHS-LC-Biotin from Pierce (Rockford, Ill.). The biotinylation reaction was conducted by slowly and intermittently adding 3 equivalents of 10 mM Sulfo-NHS-LC-Biotin to 100 μM Histone H1 in phosphate-buffered saline, pH 7.5, at 4° C. with gentle vortexing over 1 minute followed by subsequent 4° C. incubation for 1 hour. Streptavidin coated (FLASHPLATE PLUS®) microplates were purchased from Perkin Elmer (Waltham, Mass.).
PARP1 assay was conducted in PARP assay buffer containing 50 mM Tris pH 8.0, 1 mM DTT, 4 mM MgCl2. […] Auto reactions utilizing SPA bead-based detection were carried out in 100 μL volumes in white 96 well plates. Reactions were initiated by adding 50 μl of 2× NAD^+ substrate mixture to 50 μL of 2× enzyme mixture containing PARP and DNA. […] 170 μL of the stopped reaction mixtures were transferred to streptavidin FLASHPLATE PLUS®, incubated for 1 hour, and counted using a TOPCOUNT® microplate scintillation counter from Perkin Elmer (Waltham, Mass.).

SMILES | Ki [nM]
CN1CCN(Cc2ccc3c(c2)NC(=O)C2CCCN32)CC1 (stereo not shown) [Example 48, 7-[(4-methylpiperazin-1-yl)methyl]-1,2,3,3a-tetrahydropyrrolo[1,2-a]quinoxalin-4(5H)-one] | > 9500
CN(Cc1ccccc1)Cc1ccc2c(c1)NC(=O)C1CCCN21 (stereo not shown) [Example 49, 7-{[benzyl(methyl)amino]methyl}-1,2,3,3a-tetrahydropyrrolo[1,2-a]quinoxalin-4(5H)-one] | 1350
CC(C)N(C)Cc1ccc2c(c1)NC(=O)C1CCCN21 (stereo not shown) [Example 50, 7-{[isopropyl(methyl)amino]methyl}-1,2,3,3a-tetrahydropyrrolo[1,2-a]quinoxalin-4(5H)-one] | 1960
CS(=O)(=O)N(Cc1ccc2[nH]c(=O)c3cccn3c2c1)C1CC1 [Example 51, N-cyclopropyl-N-[(4-oxo4,5-dihydropyrrolo[1,2-a]quinoxalin-8-yl)methyl]methanesulfonamide] | 779
O=C1CCCN1Cc1ccc2c(c1)[nH]c(=O)c1cccn12 [Example 52, 7-[(2-oxopyrrolidin-1-yl)methyl]pyrrolo[1,2-a]quinoxalin-4(5H)-one] | 698
O=C1NCc2cc(CN3CCCCC3)ccc2-n2cccc21 [Example 57, 8-(piperidin-1-ylmethyl)-5,6-dihydro-4H-pyrrolo[1,2-a][1,4]benzodiazepin4-one] | 1140
O=C1NCc2cc(CNC3CCCCC3)ccc2-n2cccc21 [Example 58, 8-[(cyclohexylamino)methyl]-5,6-dihydro-4H-pyrrolo[1,2-a][1,4]benzodiazepin4-one] | 1440
COC(=O)CNCc1ccc2c(c1)[nH]c(=O)c1cccn12 [Example 59, Methyl N-[(4-oxo4,5-dihydropyrrolo[1,2-a]quinoxalin-7-yl)methyl]glycinate] | 534
O=C(O)CNCc1ccc2c(c1)[nH]c(=O)c1cccn12 [Example 60, N-[(4-oxo-4,5-dihydropyrrolo[1,2-a]quinoxalin-7-yl)methyl]glycine] | 318
O=C(NCC(=O)N1CCOCC1)c1ccc2c(c1)[nH]c(=O)c1cccn12 [Example 64, N-(2-morpholino-2-oxoethyl)-4-oxo-4,5-dihydropyrrolo[1,2-a]quinoxaline-7-carboxamide] | 369
CN(C)CCNCc1ccc2c(c1)[nH]c(=O)c1cccn12 [Example 65, 7-({[2-(dimethylamino)ethyl]amino}methyl)pyrrolo[1,2-a]quinoxalin-4(5H)-one] | 427
O=C(NCCCN1CCCCC1)c1ccc2c(c1)[nH]c(=O)c1cccn12 [Example 70, 4-oxo-N-(3-piperidin-1-ylpropyl)-4,5-dihydropyrrolo[1,2-a]quinoxaline-7-carboxamide] | 139
CN(C)C1CCC(NCc2ccc3c(c2)[nH]c(=O)c2cccn23)CC1 (stereo not shown) [Example 72, 7-({[4-(dimethylamino)cyclohexyl]amino}methyl)pyrrolo[1,2-a]quinoxalin-4(5H)-one] | 163
O=C(CNCc1ccc2c(c1)[nH]c(=O)c1cccn12)N1CCCC1 [Example 76, 7-((2-oxo-2-(pyrrolidin-1-yl)ethylamino)methyl)pyrrolo[1,2-a]quinoxalin-4(5H)-one] | 149
CCN1CCCC(NC(=O)c2ccc3c(c2)[nH]c(=O)c2cccn23)C1 (stereo not shown) [Example 80, N-(1-ethylpiperidin-3-yl)4-oxo-4,5-dihydropyrrolo[1,2-a]quinoxaline-7carboxamide] | 113
O=C(Nc1ccc(N2CCN(Cc3ccccc3)CC2)cc1)c1ccc2c(c1)[nH]c(=O)c1cccn12 [Example 83, N-[4-(4-benzylpiperazin-1-yl)phenyl]-4-oxo4,5-dihydropyrrolo[1,2-a]quinoxaline-7-carboxamide] | 58
O=C(Nc1nccs1)c1ccc2c(c1)[nH]c(=O)c1cccn12 [Example 84, 4-oxo-N-1,3-thiazol-2-yl-4,5-dihydropyrrolo[1,2-a]quinoxaline-7-carboxamide] | 98

More lines, in order of falling Ki, values ahead:

Ki [nM] | SMILES
1640 | O=C(Nc1cccc(S(=O)(=O)N2CCCCC2)c1)c1ccc2c(c1)[nH]c(=O)c1cccn12 [Example 75, 4-oxo-N-[3-(piperidin-1-ylsulfonyl)phenyl]4,5-dihydropyrrolo[1,2-a]quinoxaline-7-carboxamide]
1630 | CN(C)CCNC(=O)c1ccc2c(c1)[nH]c(=O)c1cccn12 [Example 68, N-[2-(dimethylamino)ethyl]-4-oxo-4,5-dihydropyrrolo[1,2-a]quinoxaline-7-carboxamide]
1500 | CC(=O)N(Cc1ccc2c(c1)[nH]c(=O)c1cccn12)C1CCC1 [Example 55, N-cyclobutyl-N-[(4-oxo-4,5-dihydropyrrolo[1,2-a]quinoxalin-7-yl)methyl]acetamide]
917 | CCS(=O)(=O)N(Cc1ccc2[nH]c(=O)c3cccn3c2c1)C1CCC1 [Example 53, N-cyclobutyl-N-[(4-oxo-4,5-dihydropyrrolo[1,2-a]quinoxalin-8-yl)methyl]ethanesulfonamide]
909 | CS(=O)(=O)N(Cc1ccc2c(c1)[nH]c(=O)c1cccn12)C1CC1 [Example 56, N-cyclopropyl-N-[(4-oxo-4,5-dihydropyrrolo[1,2-a]quinoxalin-7-yl)methyl]methanesulfonamide]
874 | O=C(NCC(=O)N1CCCC1)c1ccc2c(c1)[nH]c(=O)c1cccn12 [Example 73, 4-oxo-N-(2-oxo-2-(pyrrolidin-1-yl)ethyl)-4,5-dihydropyrrolo[1,2-a]quinoxaline-7-carboxamide]
776 | CN(C)C1CCC(NC(=O)c2ccc3c(c2)[nH]c(=O)c2cccn23)CC1 (stereo not shown) [Example 74, N-[4-(dimethylamino)cyclohexyl]-4-oxo4,5-dihydropyrrolo[1,2-a]quinoxaline-7-carboxamide]
635 | CC(C)N(Cc1ccc2[nH]c(=O)c3cccn3c2c1)S(=O)(=O)c1ccccc1 [Example 54, N-isopropyl-N-[(4-oxo-4,5-dihydropyrrolo[1,2-a]quinoxalin-8-yl)methyl]benzenesulfonamide]
615 | CN(C)C(=O)c1ccc2c(c1)[nH]c(=O)c1cccn12 [Example 79, N,N-dimethyl-4-oxo-4,5-dihydropyrrolo[1,2-a]quinoxaline-7-carboxamide]
211 | O=C(NCCCN1CCOCC1)c1ccc2c(c1)[nH]c(=O)c1cccn12 [Example 63, N-(3-morpholin-4-ylpropyl)-4-oxo-4,5-dihydropyrrolo[1,2-a]quinoxaline-7-carboxamide]
182 | O=c1[nH]c2cc(CNCCN3CCCCC3)ccc2n2cccc12 [Example 71, 7-{[(2-piperidin-1-ylethyl)amino]methyl}pyrrolo[1,2-a]quinoxalin-4(5H)-one]
129 | O=c1[nH]c2cc(CNCCCN3CCCCC3)ccc2n2cccc12 [Example 69, 7-{[(3-piperidin-1-ylpropyl)amino]methyl}pyrrolo[1,2-a]quinoxalin-4(5H)-one]
94 | O=C(NCCCCc1ccccc1)c1ccc2c(c1)[nH]c(=O)c1cccn12 [Example 81, 4-oxo-N-(4-phenylbutyl)-4,5-dihydropyrrolo[1,2-a]quinoxaline-7-carboxamide]
86 | O=C(NCCN1CCSCC1)c1ccc2c(c1)[nH]c(=O)c1cccn12 [Example 78, 4-oxo-N-(2-thiomorpholin-4-ylethyl)-4,5-dihydropyrrolo[1,2-a]quinoxaline-7-carboxamide]
